Results published in patent US7041636B1, “Composition for counteracting hair loss” (priority 2004, dated 2006).

Tested on: dandruff
Assay: dandruff removal trials, topical application before shampooing
Assay type: in vivo
Conditions: series of trials on subjects; applied twenty minutes before shampooing
Description: The author of the present inventions has engaged in research, and experimentation in the field of hair care products for a number of years. As a dandruff treatment, they investigated the use of polysorbate 80, procured from the Nourishair Company in the form of a thick gel. […] Based on this experience, they used the product on a number of subjects over a period of ten years. For antiseptic purposes and tactile response, they subsequently decided to add an amount of menthol to the polysorbate 80.

Substance: polysorbate 80
- dandruff removal: worked well

Substance: polysorbate 60
- dandruff removal: worked well
